This is an account of results in patent publication US8623414B2, “Compositions comprising a lipid and copolymer of styrene and maleic acid” (Malvren Cosmeceutics Limited, priority 2005, dated 2014).

The nature of data set [1]: Example 5 Supplemental: turbidity meter (Nephla) of compositions with active agents over time (Table 12a). As to clarity: key: Clear: categorised as being clear if there was no significant visible opacity to the naked eye; Cloudy: categorised as cloudy if there was significant visible disruption to the passage of light. In kind it is physicochemical. The note with it: SMA 3000P (hydrolysed) 2.5%, lipid 90H 1%. Here is the method: The turbidity meter was calibrated prior to use, with two known standards (0 and 40 FNU).
After the final stage of sample preparation (i.e. adjustment of the pH to physiological) samples were course filtered through Whatman 541 filter paper to remove any gross matter which could interfere with turbidity measurement. Immediately after filtration the first turbidity measurement was taken. Mixtures were stored at 4° C. following the initial measurement, and remeasured at later time points.

A short description of data set [2]: Example 5: compositions of the invention to solubilise exemplary active agents (visual clarity, pH on clearing, clarity at pH 7). The following applies: SMA 3000HNa 2.5%, 90H 1%, S LPC 0.01%.
Method: A stock emulsion of cosurfactant, membrane forming lipid and active was prepared at double the desired final concentration. Cosurfactant was dissolved in water while heating (approximately 50° C.) and stirring. Lipid was then added, followed by continued stirring and heating until a uniform emulsion is formed. The emulsion was then homogenised for 10 minutes. After re-heating to approximately 50° C. the active component was added slowly under stirring until a uniform emulsion was present. The final emulsion was then homogenised for a further 10 minutes.
Stock solutions were prepared by mixing of the hydrolysed polymer with the appropriate volume of water.
Polymer/lipid mixtures were then prepared by the dropwise addition of the lipid containing emulsion to an equal volume of polymer solution while stirring and heating to approximately 50° C.
The pH of the mixtures was adjusted to determine the critical pH level at which macromolecular assemblies formed, and whether the resulting clear and colourless solution would remain at physiological pH.
Percentage values specified in this experiment refer to the weight of the component in question as a proportion of the total weight of the composition.
Mixtures were visually examined to determine whether the polymer/lipid assemblies had solubilised the active agent in the aqueous medium. The clarity of a mixture was categorised as being clear if there was no significant visible opacity to the naked eye, whereas a mixture was categorised as cloudy if there was significant visible disruption to the passage of light.
Where [3] appears, read: S LPC 0.01%, active agent 0.25%.
Where [4] appears, read: SL 30-3 0.05% (S LPC content 0.01%), active agent 0.80%.
Setting [5] is: S LPC 0.01%, active agent 0.15%.

Consider `Clc1ccccc1C(c1ccccc1)(c1ccccc1)n1ccnc1` [Clot., Clotrimazole, reference compound], for which, in data set [1] (S LPC 0.01%, active agent 0.1%), the Clarity entry was “Clear”, the pH on clearing stood at 8.78 and the “Turbidity at pH 7 (FNU)” value stood at 5.91 FNU.

Regarding Ceramide IIIB [Cera. IIIB], in data set [1] (S LPC 0.01%, active agent 0.1%), the Clarity result was “Clear”, the pH on clearing turned out to be 8.98 and the “Turbidity at pH 7 (FNU)” value worked out at 120.7 FNU.

Regarding `CC(=O)OCC(=O)[C@@]1(O)CC[C@H]2[C@@H]3CCC4=CC(=O)CC[C@]4(C)[C@H]3C(=O)C[C@@]21C` [Cort. A., Cortisone Acetate, reference compound], in data set [1] (setting [3]), the Clarity entry is given as “Clear”, the pH on clearing is listed as 8.87 and the “Turbidity at pH 7 (FNU)” value is listed as 14.28 FNU.

Regarding `CC(=O)OCC(=O)[C@@]1(O)CC[C@H]2[C@@H]3CCC4=CC(=O)CC[C@]4(C)[C@H]3[C@@H](O)C[C@@]21C` [HC A, Hydrocortisone Acetate, reference compound], in data set [1] (setting [3]), the Clarity result is reported as “Clear”, the pH on clearing worked out at 8.92 and the “Turbidity at pH 7 (FNU)” value was 39.6 FNU.

Take `CCCCCCCCCCCCCCCC(=O)OC[C@H](O)[C@H]1OC(=O)C(OC(=O)CCCCCCCCCCCCCCC)=C1O` [CP]: in data set [2] (active agent 0.1%), the Clarity entry is given as “Clear”, the “Clarity at pH 7” value is reported as “Clear” and the pH on clearing was determined as 8.89.

As to `C[C@@H]1[C@H](O)[C@@H](C)/C=C/C=C/CC/C=C/C=C/C=C/C=C/C(O[C@H]2O[C@H](C)[C@@H](O)[C@H](N)[C@@H]2O)CC2O[C@](O)(CC(O)C(O)CCC(O)CC(O)CC(O)CC(=O)O[C@H]1C)CC(O)C2C(=O)O` (stereo partly drawn) [Nystatin, reference compound], in data set [1] (S LPC 0.01%, active agent 0.1%), the Clarity entry is “Clear”, the pH on clearing came out at 8.85 and the “Turbidity at pH 7 (FNU)” value is 6.93 FNU.

For the molecule `CCCC(=O)O[C@]1(C(=O)CO)CC[C@H]2[C@@H]3CCC4=CC(=O)CC[C@]4(C)[C@H]3[C@@H](O)C[C@@]21C` [HC But], in data set [1] (S LPC 0.01%, active agent 0.1%), the Clarity result was “Clear”, the pH on clearing stood at 8.86 and the “Turbidity at pH 7 (FNU)” value is recorded as 33.1 FNU.

For “Erythromycin Sulphate [Erythro., reference compound]”, in data set [1] (S LPC 0.01%, active agent 0.1%), the Clarity entry is reported as “Clear”, the pH on clearing was 8.86 and the “Turbidity at pH 7 (FNU)” value stood at 18.20 FNU.

As for `CC(C)[C@@H]1CC[C@@H](C)C[C@H]1OC(=O)C1CCC(=O)N1` (stereo partly drawn) [Questice], in data set [1] (setting [3]), the Clarity result is “Clear”, the pH on clearing is listed as 8.84 and the “Turbidity at pH 7 (FNU)” value is given as 28.9 FNU.

Consider `CC(Cc1ccc(O)c(O)c1)C(C)Cc1ccc(O)c(O)c1` (stereo not drawn) [NDGA, Nordihydroguaiaretic acid], for which, in data set [1] (S LPC 0.01%, active agent 0.1%), the Clarity result is “Clear”, the pH on clearing was 8.98 and the “Turbidity at pH 7 (FNU)” value came out at 27.7 FNU.

As for `COc1ccc(C(=O)c2ccccc2)c(O)c1` [Eusolex 4360, Benzophenone-3], in data set [1] (S LPC 0.01%, active agent 0.1%), the Clarity result is “Clear”, the pH on clearing turned out to be 8.96 and the “Turbidity at pH 7 (FNU)” value is given as 31.00 FNU.

As for `CCCCC(CC)COC(=O)C=Cc1ccc(OC)cc1` (stereo not drawn) [Eusolex 2292, Octyl methoxycinimate], in data set [1] (S LPC 0.01%, active agent 0.1%), the Clarity entry was “Clear”, the pH on clearing amounted to 8.81 and the “Turbidity at pH 7 (FNU)” value was determined as 24.50 FNU.

Turning to `CC(=O)N1CCN(c2ccc(OCC3COC(Cn4ccnc4)(c4ccc(Cl)cc4Cl)O3)cc2)CC1` (stereo not drawn) [Keta., Ketaconazole, reference compound], in data set [1] (S LPC 0.01%, active agent 0.1%), the Clarity entry was “Clear”, the pH on clearing is listed as 8.63 and the “Turbidity at pH 7 (FNU)” value is 40.75 FNU. Further, in data set [1] (S LPC 0.01%, active agent 0.4%), the Clarity entry was “Clear”, the pH on clearing is 8.83 and the “Turbidity at pH 7 (FNU)” value was 74.5 FNU.

Consider `CC(C)CCC[C@@H](C)[C@H]1CC[C@H]2C3=CC=C4C[C@@H](O)CC[C@]4(C)[C@H]3CC[C@]12C` [7-DHC, 7-Dehydrocholesterol], for which, in data set [1] (S LPC 0.01%, active agent 0.1%), the Clarity entry is on record as “Clear”, the pH on clearing was found to be 8.91 and the “Turbidity at pH 7 (FNU)” value stood at 7.28 FNU.

Turning to `CCCCCCCCCCCCCCCC(=O)OC/C=C(C)/C=C/C=C(C)/C=C/C1=C(C)CCCC1(C)C` [Ret-P, Retinol palmitate], in data set [2] (active agent 0.25%), the Clarity result is “Clear”, the “Clarity at pH 7” value was “Clear” and the pH on clearing came to 8.95.

With `Cc1cc(CC(C)CC(C)(C)C)n(O)c(=O)c1.NCCO` (stereo not drawn) [Octopirox, Piroctone olamine], in data set [1] (setting [4]), the Clarity result is recorded as “Clear” and the “Turbidity at pH 7 (FNU)” value is recorded as 3.52 FNU.

On to `CCCCCCCCC(CCCCCC)C(=O)OC[C@H](OC(=O)C(CCCCCC)CCCCCCCC)[C@H]1OC(=O)C(OC(=O)C(CCCCCC)CCCCCCCC)=C1OC(=O)C(CCCCCC)CCCCCCCC` (stereo partly drawn) [VC-IP], for which, in data set [2] (active agent 0.1%), the Clarity entry was “Clear”, the “Clarity at pH 7” value is given as “Clear” and the pH on clearing was 8.89.

For `NC[C@@H]1O[C@H](O[C@H]2[C@@H](O)[C@H](O[C@@H]3[C@@H](O)[C@H](N)C[C@H](N)[C@H]3O[C@H]3O[C@H](CN)[C@@H](O)[C@H](O)[C@H]3N)O[C@@H]2CO)[C@H](N)[C@@H](O)[C@@H]1O.O=S(=O)(O)O` [Neo. Sulphate, Neomycin Sulphate, reference compound], in data set [1] (S LPC 0.01%, active agent 0.1%), the Clarity result is “Clear”, the pH on clearing amounted to 8.82 and the “Turbidity at pH 7 (FNU)” value was 42.80 FNU.

Take `CC(C)CCC[C@@H](C)[C@H]1CC[C@H]2[C@@H]3CC=C4C[C@@H](O)CC[C@]4(C)[C@H]3CC[C@]12C` [Chol, Cholesterol]: in data set [2] (active agent 0.1%), the Clarity entry was “Clear”, the “Clarity at pH 7” value is reported as “Clear” and the pH on clearing is reported as 8.95.

As for acetyl hexapeptide 3 [Argir], the “Clarity at pH 7” value in data set [2] (active agent 0.3%) is given as “Clear”.

For the molecule `C=C1CC[C@H](O)C/C1=C/C=C1\CCC[C@]2(C)[C@@H]([C@H](C)CCCC(C)C)CC[C@@H]12` [Vitamin D3, Cholecalciferol, reference compound], in data set [1] (setting [3]), the Clarity result was “Clear”, the pH on clearing stood at 8.59 and the “Turbidity at pH 7 (FNU)” value was 19.78 FNU.

Take Ceramide IIIA: in data set [2] (active agent 0.1%), the Clarity result was “Clear”, the “Clarity at pH 7” value was “Clear” and the pH on clearing is 8.89.

Turning to `CC(C)CCC[C@@H](C)[C@H]1CC[C@H]2[C@@H]3CC=C4C[C@@H](OS(=O)(=O)O)CC[C@]4(C)[C@H]3CC[C@]12C` [Chol Sulphate], in data set [1] (S LPC 0.01%, active agent 0.1%), the Clarity entry is on record as “Clear”, the pH on clearing is 8.81 and the “Turbidity at pH 7 (FNU)” value was 17.81 FNU.

For `CC12CCC(C(=Cc3ccccc3)C1=O)C2(C)C` (stereo not drawn) [Unisol S-22, 3-Benzylidene camphor], in data set [1] (setting [5]), the Clarity result is “Clear”, the pH on clearing was determined as 8.94 and the “Turbidity at pH 7 (FNU)” value is listed as 9.46 FNU.

As to `CC(=O)OCC(=O)[C@@]1(O)[C@H](C)C[C@H]2[C@@H]3CCC4=CC(=O)C=C[C@]4(C)[C@@]3(F)[C@@H](O)C[C@@]21C` [DEX A.A., Dexamethasone Acetate Anhydrous, reference compound], in data set [1] (setting [3]), the Clarity result is “Clear”, the pH on clearing worked out at 8.84 and the “Turbidity at pH 7 (FNU)” value came out at 10.52 FNU.

For `Nc1ccc(C(=O)O)cc1` [PABA, 4-Aminobenzoic acid], in data set [1] (S LPC 0.01%, active agent 0.1%), the Clarity result was “Clear”, the pH on clearing is 8.89 and the “Turbidity at pH 7 (FNU)” value is given as 23.20 FNU.

For the molecule `CCC(=O)O[C@]1(C(=O)CCl)[C@@H](C)C[C@H]2[C@@H]3CCC4=CC(=O)C=C[C@]4(C)[C@@]3(F)[C@@H](O)C[C@@]21C` [Clo. P, Clobetasol Propionate, reference compound], in data set [1] (S LPC 0.01%, active agent 0.1%), the Clarity entry is given as “Clear”, the pH on clearing was determined as 8.85 and the “Turbidity at pH 7 (FNU)” value is listed as 50 FNU.

On to `CCCC(=O)O[C@]1(C(=O)CCl)[C@H](C)C[C@@H]2[C@@H]3CCC4=CC(=O)C=C[C@]4(C)[C@]3(F)C(=O)C[C@@]21C` [Clo. But], for which, in data set [1] (S LPC 0.01%, active agent 0.1%), the Clarity result is listed as “Clear”, the pH on clearing is 8.94 and the “Turbidity at pH 7 (FNU)” value is 63.0 FNU.

Regarding `COc1ccc(C(=O)CC(=O)c2ccc(C(C)(C)C)cc2)cc1` [Avobenzene], in data set [1] (S LPC 0.01%, active agent 0.1%), the Clarity entry is given as “Clear”, the pH on clearing was 8.88 and the “Turbidity at pH 7 (FNU)” value came out at 62.0 FNU.

As to `C[C@]12CCC(=O)C=C1CC[C@@H]1[C@@H]2[C@@H](O)C[C@@]2(C)[C@H]1CC[C@]2(O)C(=O)CO` [HC, Hydrocortisone, reference compound], in data set [1] (setting [3]), the Clarity entry is “Clear”, the pH on clearing turned out to be 8.97 and the “Turbidity at pH 7 (FNU)” value is recorded as 9.09 FNU.
